The target of the assay is T1, CRF1 receptors (Homo sapiens, UniProt P34998).
T1 construct: endogenous in cells; host or cells: IMR-32 cells, transformed with 2.5 µM 5'-bromo-2'-deoxyuridine for 10 days; membrane preparation
T1 sequence (P34998 24-415): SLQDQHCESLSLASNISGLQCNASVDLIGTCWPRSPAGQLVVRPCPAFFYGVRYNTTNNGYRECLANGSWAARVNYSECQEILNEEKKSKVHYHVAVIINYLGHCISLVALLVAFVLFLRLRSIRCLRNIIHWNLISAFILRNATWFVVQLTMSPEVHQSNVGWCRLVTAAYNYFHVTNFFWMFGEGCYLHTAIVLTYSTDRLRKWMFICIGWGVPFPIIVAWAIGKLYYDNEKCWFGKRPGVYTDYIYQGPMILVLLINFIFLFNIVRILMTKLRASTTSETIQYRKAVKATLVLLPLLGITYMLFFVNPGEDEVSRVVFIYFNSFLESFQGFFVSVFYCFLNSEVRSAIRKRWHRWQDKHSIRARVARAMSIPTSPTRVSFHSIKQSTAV
Description: CRF1 receptor radioligand binding assay ([125I]-oCRF competition, IMR-32 cell membranes). The note with it: IMR-32 cell membranes, [125I]-oCRF 100 pM; read-out: Ki (CRF-1R). The essentials: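 Buffer: Tris pH 7.2 with MgCl2, BSA, Triton X-100, aprotinin, leupeptin; reaction stopped with ice-cold wash and filtered. Nonspecific binding set with 10 μM oCRF.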

A word on the Ki: it is a measure of affinity in units of concentration, obtained from inhibition or displacement.

Turning to `Cc1cc(C)c(N2CCCn3c2nc(C(F)(F)F)c3CN(CCc2ccccc2)CC(F)(F)F)c(Cl)c1` [Example 119, [8-(2-Chloro-4,6-dimethyl-phenyl)-2-trifluoromethyl-5,6,7,8-tetrahydro-imidazo[1,2-a]pyrimidin-3-ylmethyl]-phenethyl-(2,2,2-trifluoro-ethyl)-amine], the Ki is < 1000 nM.

Consider `CCCN(Cc1c(C(F)(F)F)nc2n(-c3ccc(C(C)C)cc3Br)c3ccccc3n12)CC(F)(F)F` [Example 200, [8-(2-Bromo-4-isopropyl-phenyl)-2-trifluoromethyl-8H-1,3a,8-triaza-cyclopenta[α]inden-3-ylmethyl]-propyl-(2,2,2-trifluoro-ethyl)-amine], for which the Ki was < 10000 nM.

Consider `CCN(Cc1c(C(F)(F)F)nc2n1CCCN2c1c(C)cc(C)cc1Cl)CC1CC1` [Example 113, [8-(2-Chloro-4,6-dimethyl-phenyl)-2-trifluoromethyl-5,6,7,8-tetrahydro-imidazo[1,2-a]pyrimidin-3-ylmethyl]-cyclopropylmethyl-ethyl-amine], for which the Ki was < 100 nM.

With `CCCN(Cc1c(C(F)(F)F)nc2n1CCCN2c1c(C)cc(C)cc1C)CC(F)(F)F` [Example 79, Propyl-(2,2,2-trifluoro-ethyl)-[2-trifluoromethyl-8-(2,4,6-trimethyl-phenyl)-5,6,7,8-tetrahydro-imidazo[1,2-a]pyrimidin-3-ylmethyl]-amine], the Ki is < 100 nM.

Consider `C=CCN(CCC)Cc1c(C(F)(F)F)nc2n(-c3c(C)cc(C)cc3C)c(Cl)cn12` [Example 339, Allyl-[6-chloro-2-trifluoromethyl-7-(2,4,6-trimethyl-phenyl)-7H-imidazo[1,2-a]imidazol-3-ylmethyl]-propyl-amine], for which the inhibitory constant (Ki) is < 10 nM.

Consider `CCCN(Cc1ccc(Cl)cc1)C(=O)c1c(CC)nc2n1CCN2c1c(C)cc(C)cc1C` [Example 21, 2-Ethyl-7-(2,4,6-trimethyl-phenyl)-6,7-dihydro-5H-imidazo[1,2-a]imidazole-3-carboxylic acid (4-chloro-benzyl)-propyl-amide], for which the Ki is < 10000 nM.

With `CCCN(CCC1CC1)C(=O)c1c(CC)nc2n1CCN2c1c(C)cc(C)cc1C` [Example 20, 2-Ethyl-7-(2,4,6-trimethyl-phenyl)-6,7-dihydro-5H-imidazo[1,2-a]imidazole-3-carboxylic acid (2-cyclopropyl-ethyl)-propyl-amide], the Ki was < 1000 nM.

As for `Cc1cc(C)c(N2CCCn3c2nc(C(F)(F)F)c3CN2CCCC(C)C2)c(Cl)c1` (stereo not shown) [Example 101, 8-(2-Chloro-4,6-dimethyl-phenyl)-3-(3-methyl-piperidin-1-ylmethyl)-2-trifluoromethyl-5,6,7,8-tetrahydro-imidazo[1,2-a]pyrimidine], the Ki was < 1000 nM.

In the case of `FC(F)(F)CN(Cc1c(C(F)(F)F)nc2n(-c3ccc(Cl)cc3Cl)c3ccccc3n12)CC1CCC1` [Example 185, Cyclobutylmethyl-[8-(2,4-dichloro-phenyl)-2-trifluoromethyl-8H-1,3a,8-triaza-cyclopenta[α]inden-3-ylmethyl]-(2,2,2-trifluoro-ethyl)-amine], the Ki was < 10000 nM.

For the molecule `CCc1nc2n(-c3c(C)cc(C)cc3C)c(Cl)cn2c1C(=O)N(CC)CC1CC1` [Example 298, 6-Chloro-2-ethyl-7-(2,4,6-trimethylphenyl)-7H-imidazo[1,2-a]imidazole-3-carboxylic acid N-cyclopropylmethyl-N-ethylamide], the Ki was < 10 nM.

As to `Cc1cc(C)c(N2CCCn3c2nc(C(F)(F)F)c3CN2CCCCC2)c(C)c1` [Example 62, 3-Piperidin-1-ylmethyl-2-trifluoromethyl-8-(2,4,6-trimethyl-phenyl)-5,6,7,8-tetrahydro-imidazo[1,2-a]pyrimidine], the Ki was < 1000 nM.

As for `Cc1cc(C)c(-n2c(Cl)cn3c(CN(CC4CC4)CC(F)(F)C(F)(F)F)c(C(F)(F)F)nc23)c(C)c1` [Example 318], the Ki was < 10 nM.

On to `Cc1cc(C)c(-n2c3ncccc3n3c(CN(CCC4CC4)CCC(F)(F)F)c(C(F)(F)F)nc23)c(C)c1` [Example 225, (2-Cyclopropyl-ethyl)-[2-trifluoromethyl-8-(2,4,6-trimethyl-phenyl)-8H-1,3a,7,8-tetraaza-cyclopenta[α]inden-3-ylmethyl]-(3,3,3-trifluoro-propyl)-amine], for which the Ki was < 1000 nM.

For `Cc1cc(C)c(-n2c3ccccc3n3c(CN(C)Cc4ccccc4)c(C(F)(F)F)nc23)c(C)c1` [Example 167, Benzyl-methyl-[2-trifluoromethyl-8-(2,4,6-trimethyl-phenyl)-8H-1,3a,8-triaza-cyclopenta[α]inden-3-ylmethyl]-amine], the inhibitory constant (Ki) was < 1000 nM.

On to `C=C(C)CN(CC)Cc1c(C(F)(F)F)nc2n1CCCN2c1c(C)cc(C)cc1C` [Example 71, Ethyl-(2-methyl-allyl)-[2-trifluoromethyl-8-(2,4,6-trimethyl-phenyl)-5,6,7,8-tetrahydro-imidazo[1,2-a]pyrimidin-3-ylmethyl]-amine], for which the Ki was < 100 nM.

Consider `C=CCN(CCC)Cc1c(C(F)(F)F)nc2n1CCCN2c1c(C)cc(C)cc1C` [Example 95, Allyl-propyl-[2-trifluoromethyl-8-(2,4,6-trimethyl-phenyl)-5,6,7,8-tetrahydro-imidazo[1,2-a]pyrimidin-3-ylmethyl]-amine], for which the Ki was < 100 nM.

For `C=CCN(CCC)C(=O)c1c(CC)nc2n1CCN2c1c(C)cc(C)cc1C` [Example 19, 2-Ethyl-7-(2,4,6-trimethyl-phenyl)-6,7-dihydro-5H-imidazo[1,2-a]imidazole-3-carboxylic acid allyl-propyl-amide], the Ki is < 1000 nM.

Turning to `FC(F)(F)CCN(Cc1c(C(F)(F)F)nc2n(-c3ccc(Cl)cc3Cl)c3ccccc3n12)CC1CC1` [Example 180, Cyclopropylmethyl-[8-(2,4-dichloro-phenyl)-2-trifluoromethyl-8H-1,3a,8-triaza-cyclopenta[α]inden-3-ylmethyl]-(3,3,3-trifluoro-propyl)-amine], the Ki was < 10000 nM.

With `CCCN(CCC1CC1)Cc1c(C(F)(F)F)nc2n(-c3c(C)cc(C)cc3C)c3ncccc3n12` [Example 230, (2-Cyclopropyl-ethyl)-propyl-[2-trifluoromethyl-8-(2,4,6-trimethyl-phenyl)-8H-1,3a,7,8-tetraaza-cyclopenta[α]inden-3-ylmethyl]-amine], the Ki was < 1000 nM.

For the molecule `C=CCN(CCC)Cc1c(C(F)(F)F)nc2n(-c3c(C)cc(C)cc3C)c3ncccc3n12` [Example 220, Allyl-propyl-[2-trifluoromethyl-8-(2,4,6-trimethyl-phenyl)-8H-1,3a,7,8-tetraaza-cyclopenta[α]inden-3-ylmethyl]-amine], the Ki is < 1000 nM.

With `CCN(Cc1c(C(F)(F)F)nc2n(-c3c(C)cc(C)cc3C)c(Cl)cn12)CC1CC1` [Example 319, [6-Chloro-2-trifluoromethyl-7-(2,4,6-trimethyl-phenyl)-7H-imidazo[1,2-a]imidazol-3-ylmethyl]-cyclopropylmethyl-ethyl-amine], the Ki was < 10 nM.

In the case of `CCN(Cc1c(C(F)(F)F)nc2n(-c3ccc(Cl)cc3Cl)c3ccccc3n12)CC1CC1` [Example 181, Cyclopropylmethyl-[8-(2,4-dichloro-phenyl)-2-trifluoromethyl-8H-1,3a,8-triaza-cyclopenta[α]inden-3-ylmethyl]-ethyl-amine], the Ki is < 10000 nM.

For `CCCCN(CC)Cc1c(C(F)(F)F)nc2n(-c3ccc(C(C)C)cc3Br)c3ccccc3n12` [Example 203, [8-(2-Bromo-4-isopropyl-phenyl)-2-trifluoromethyl-8H-1,3a,8-triaza-cyclopenta[α]inden-3-ylmethyl]-butyl-ethyl-amine], the Ki was < 10000 nM.

`CCN(CCC1CC1)Cc1c(C(F)(F)F)nc2n(-c3c(C)cc(C)cc3C)c3ccccc3n12` [Example 172, (2-Cyclopropyl-ethyl)-ethyl-[2-trifluoromethyl-8-(2,4,6-trimethyl-phenyl)-8H-1,3a,8-triaza-cyclopenta[α]inden-3-ylmethyl]-amine]: the Ki was < 10000 nM.

Turning to `CCN(Cc1c(C(F)(F)F)nc2n(-c3ccc(C(C)C)cc3Br)c3ccccc3n12)CC1CC1` [Example 190, [8-(2-Bromo-4-isopropyl-phenyl)-2-trifluoromethyl-8H-1,3a,8-triaza-cyclopenta[α]inden-3-ylmethyl]-cyclopropylmethyl-ethyl-amine], the Ki is < 1000 nM.

In the case of `CCc1nc2n(c1C(=O)N(CC)CC1CCC1)CCN2c1c(C)cc(C)cc1Br` [Example 43, 7-(2-Bromo-4,6-dimethyl-phenyl)-2-ethyl-6,7-dihydro-5H-imidazo[1,2-a]imidazole-3-carboxylic acid cyclobutylmethyl-ethyl-amide], the Ki was < 1000 nM.

Regarding `CCCCN(Cc1ccccc1)Cc1c(C(F)(F)F)nc2n(-c3c(C)cc(C)cc3C)c3ncccc3n12` [Example 235, Benzyl-butyl-[2-trifluoromethyl-8-(2,4,6-trimethyl-phenyl)-8H-1,3a,7,8-tetraaza-cyclopenta[α]inden-3-ylmethyl]-a mine], the Ki was < 10000 nM.

For `CCCC(O)(CCC)c1c(CC)nc2n1CCN2c1c(C)cc(C)cc1C` [Example 47, 4-[2-Ethyl-7-(2,4,6-trimethyl-phenyl)-6,7-dihydro-5H-imidazo[1,2-a]imidazol-3-yl]-heptan-4-ol], the Ki was < 1000 nM.
